# Reference: patent publication US20160303231A1, “TREATING CANCER WITH A COMBINATION OF A PD-1 ANTAGONIST AND A VEGFR INHIBITOR” (GLAXOSMITHKLINE LLC, priority 2013, published 2016)
# Where a name gives a salt, the structure may show the parent alone.
# System: RENCA cells
# Experiment: Anti-tumor response of tumor-bearing mice (RENCA tumor model)
# Assay type: in vivo, BALB/c mice
# Conditions: for Tumor Size (D17): Mean ± SEM, day 17
# Experimental: A cohort of 8 weeks old female BALB/c mice were implanted with 1×10^6 RENCA cells. […] The Vehicle control was 0.5% hydroxypropylemethylcellulose, 0.1% Tween-80 in distilled water, pH adjusted to 1.3-1.5 with 0.1N hydrochloric acid. The Isotype control was mouse IgG1 specific for an adenoviral hexon protein (clone TC31.27F11).
# A one-way ANOVA test was performed to compare tumor volume at the end of study among groups.
# [1] = G4: Isotype 5 mpk + Pazopanib 100 mpk qd
# [2] = G6: Isotype 1 mpk + Pazopanib 100 mpk qd
# [3] = G8: Isotype 5 mpk + Pazopanib 100 mpk bid
smiles,measurement,setting,value
"Cc1ccc(Nc2nccc(N(C)c3ccc4c(C)n(C)nc4c3)n2)cc1S(N)(=O)=O [Pazopanib, 5-[[4-[(2,3-dimethyl-2H-indazol-6-yl)methylamino]-2-pyrimidinyl]amino]-2-methylbenzenesulfonamide monohydrochloride]",T/C,[1],61%
same,TGI (tumor growth inhibition),[1],39%
same,T/C,[2],70%
same,TGI (tumor growth inhibition),[2],30%
same,Tumor Size (D17),[2],"1,751 ± 214 mm^3"
same,T/C,[3],48%
same,TGI (tumor growth inhibition),[3],52%
same,Tumor Size (D17),[3],"1,240 ± 97 mm^3"
